{
  "source": "patent US11524003B2",
  "about": "“Alpha-amino esters of hydroxypropylthiazolidine carboxamide derivative and salt form, crystal polymorph thereof” (ObsEva S.A., priority 2016, dated 2022)",
  "key": {"[1]": {"system": "PGF2α-induced myometrial contractility", "assay": "PGF2α-induced contractions of human myometrial biopsies (myograph)", "conditions": "6, 60, 600, 6000 nM", "experimental": "Experiments were performed using a DMT Myograph 800 MS (ADINSTRUMENTS™) in oxygenated Kreb's solution with ADI Powerlab software. Once regular contractions had been established for at least 20 minutes, baseline measurements of spontaneous contraction frequency were recorded. The measurement of spontaneous contraction frequency is represented on the x-axis as “Spon.” A DMSO control or compound II was then added to each myometrial sample at the indicated concentrations and the effects of control or compound II on contractile frequency were measured over the ensuing 10-minute period. This time point is represented on the x-axis as “Compound II.” The effects of compound II on contractile frequency in the presence of PGF2α were subsequently measured by challenging the myometrial tissue samples with increasing concentrations of PGF2α (1 nM, 10 nM, and 100 nM) at sequential 10-minute intervals. […] Once regular contractions had been established for at least 20 minutes, baseline measurements of spontaneous work done per contraction were recorded. The measurement of spontaneous work done per contraction is represented on the x-axis as “Spon.” A DMSO control or compound II was then added to each myometrial sample at the indicated concentrations and the effects of control or compound II on work done per contraction were measured over the ensuing 10-minute period. […]"}, "[2]": {"assay": "Solubility in water, FaSSIF and FeSSIF", "assay_type": "physicochemical"}, "Caco-2 cell monolayer": {"system": "Caco-2 cell monolayer", "assay": "Bidirectional permeability across Caco-2 cell monolayers", "assay_type": "in vitro ADME, human", "experimental": "(§1) Compound I was dissolved in HBSS buffer (1% DMSO final concentration) at the concentrations of 1.5, 3 and 6 μM. Each concentration/sampling time was run in duplicate well. The test was performed in a gradient pH: the apical compartment (mucosal) was at pH 6.5, the basolateral compartment (serosal) was at pH 7.4.\n(§2) Apical to basolateral (A→B, mucosal to serosal) transport: 200 μL of each concentration of compound I was added to the apical compartment and 400 μL of HBSS was added to the basolateral compartment. The plates were incubated at 37° C. An aliquot of the basolateral compartment was sampled after 60 and 120 min (t=60 and t=120). An aliquot of the apical compartment was sampled at the starting time (t=0) and after 120 min. (t=120).\n(§3) Basolateral to apical (B→A, serosal to mucosal) transport: 400 μL of each concentration of compound I was added to the basolateral compartment and 200 μL of HBSS was added to the apical compartment. The plates were incubated at 37° C. An aliquot of the apical compartment was sampled after 60 and 120 min (t=60 and t=120). An aliquot of the basolateral compartment was sampled at the starting time (t=0) and after 120 min. (t=120). All samples were analyzed by LC/MS monitoring both compound I and the appearance of compound II.\nas §1, with “II” for “I”\nas §2, with “II” for “I”\nas §3, with “of compound II was added” for “of compound I was added”, “LC/MS monitoring compound II.” for “LC/MS monitoring both compound I and the appearance of compound II.”"}},
  "note": "Read-outs that look alike come from different tables or passages of the source.",
  "data": [
    {"smiles": "O=C(N[C@@H](CCO)c1ccc(F)cc1)[C@@H]1SCCN1S(=O)(=O)c1ccc(-c2ccccc2)cc1", "note": "[Compound II, 3-([1,1′-biphenyl]-4-ylsulfonyl)-N-[1-(4-fluorophenyl)-3-hydroxypropyl]-1,3-thiazolidine-2-carboxamide]", "values": [
      {"measurement": "Effect on PGF2α-induced myometrial contractility", "setting": "[1]", "value": "suppressing both PGF2α-induced and OT-induced myometrial contractility in a dose-dependent fashion"},
      {"measurement": "solubility", "setting": "[2]; FaSSIF, pH 6.5 (fasted state), read-out: Solubility in FaSSIF pH 6.5", "value": 0.4, "unit": "µg/mL"},
      {"measurement": "solubility", "setting": "[2]; FeSSIF, pH 5.0 (fed state), read-out: Solubility in FeSSIF pH 5.0", "value": 10, "unit": "µg/mL"},
      {"measurement": "Efflux", "setting": "Caco-2 cell monolayer", "value": "No efflux was detected"},
      {"measurement": "Passive passage through the Caco-2 monolayer", "setting": "Caco-2 cell monolayer", "value": "good passive passage"},
      {"measurement": "Passage apical to basolateral", "setting": "Caco-2 cell monolayer; A→B", "value": "good percentage of passage"},
      {"measurement": "Permeability from basolateral to apical compartment", "setting": "Caco-2 cell monolayer; B→A", "value": "low rate of permeability"}
    ]}
  ]
}
